Values quoted from earlier work in article PMC12399788, “A Comparison of the Molecular Pharmacological Properties of Current Short, Long, and Ultra‐Long‐Acting β2‐Agonists Used for Asthma and COPD” (Pharmacology Research & Perspectives, 2025).

Legend:
[1] = tested on: conscious guinea pigs; conditions: equipotent nebulized agents
[2] = tested on: guinea pig tracheal; parameters: method as in PMID 20402514; conditions: guinea pig tracheal studies
[3] = tested on: human trachea
[4] = tested on: human lung (mast cells); conditions: histamine release from human lung (mast cells)

Row | SMILES | bronchodilation duration [1] | duration [2] | duration of action [3] | duration of action relative to salbutamol [3] | time by which response was lost [4] | bronchodilation at 6 h ([1]; 6 h) | response remaining (% maximal) ([4]; at 20 h)
1 | COc1ccc(CC(C)NCC(O)c2ccc(O)c(NC=O)c2)cc1 (centres unmarked) [Formoterol, formoterol] | 3 h | 1.2 h | 34 min | 4.5 times longer | – | – | –
2 | CCc1cc2c(cc1CC)CC(NC[C@H](O)c1ccc(O)c3[nH]c(=O)ccc13)C2 [Indacaterol, indacaterol] | – | over 12 h | – | – | – | – | –
3 | CC(C)(C)NCC(O)c1ccc(O)c(CO)c1 (centres unmarked) [Salbutamol, salbutamol] | less than 1.5 h | 0.9 h | 7.6 min | – | ≤ 4 h | – | –
4 | OCc1cc(C(O)CNCCCCCCOCCCCc2ccccc2)ccc1O (centres unmarked) [Salmeterol, salmeterol] | – | – | – | – | – | no reduction | 75%
